Measured values from PubChem BioAssay (NCI).
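Compound exposure: 48 hours, 5 concentrations, 96-well plates. The concentration for 50% growth inhibition is given as GI50. TGI is the concentration that stops growth completely.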

Tests used:
Experiment in all cases: NCI-60 cell line screen, 48 h
786-0 renal = system: 786-0 renal
A498 renal = system: A498 renal
A549 NSCLC = system: A549 NSCLC
ACHN renal = system: ACHN renal
BT-549 breast = system: BT-549 breast
CAKI-1 renal = system: CAKI-1 renal
CCRF-CEM leukemia = system: CCRF-CEM leukemia
COLO 205 colon = system: COLO 205 colon
DU-145 prostate = system: DU-145 prostate
EKVX NSCLC = system: EKVX NSCLC
HCC-2998 colon = system: HCC-2998 colon
HCT-116 colon = system: HCT-116 colon
HCT-15 colon = system: HCT-15 colon
HL-60(TB) leukemia = system: HL-60(TB) leukemia
HOP-62 NSCLC = system: HOP-62 NSCLC
HOP-92 NSCLC = system: HOP-92 NSCLC
HS 578T breast = system: HS 578T breast
HT29 colon = system: HT29 colon
IGROV1 ovarian = system: IGROV1 ovarian
K-562 leukemia = system: K-562 leukemia
KM12 colon = system: KM12 colon
LOX IMVI melanoma = system: LOX IMVI melanoma
M14 melanoma = system: M14 melanoma
MALME-3M melanoma = system: MALME-3M melanoma
MCF7 breast = system: MCF7 breast
MDA-MB-231 breast = system: MDA-MB-231 breast
MDA-MB-435 = system: MDA-MB-435
MOLT-4 leukemia = system: MOLT-4 leukemia
NCI-H226 lung = system: NCI-H226 lung
NCI-H23 lung = system: NCI-H23 lung
NCI-H460 lung = system: NCI-H460 lung
NCI-H522 lung = system: NCI-H522 lung
NCI/ADR-RES ovarian = system: NCI/ADR-RES ovarian
OVCAR-3 ovarian = system: OVCAR-3 ovarian
OVCAR-4 ovarian = system: OVCAR-4 ovarian
OVCAR-5 ovarian = system: OVCAR-5 ovarian
OVCAR-8 ovarian = system: OVCAR-8 ovarian
PC-3 prostate = system: PC-3 prostate
RPMI-8226 leukemia = system: RPMI-8226 leukemia
RXF 393 renal = system: RXF 393 renal
SF-268 CNS = system: SF-268 CNS
SF-295 CNS = system: SF-295 CNS
SF-539 CNS = system: SF-539 CNS
SK-MEL-2 melanoma = system: SK-MEL-2 melanoma
SK-MEL-28 melanoma = system: SK-MEL-28 melanoma
SK-MEL-5 melanoma = system: SK-MEL-5 melanoma
SK-OV-3 ovarian = system: SK-OV-3 ovarian
SN12C renal = system: SN12C renal
SNB-19 CNS = system: SNB-19 CNS
SNB-75 CNS = system: SNB-75 CNS
SR leukemia = system: SR leukemia
SW-620 colon = system: SW-620 colon
T-47D breast = system: T-47D breast
TK-10 renal = system: TK-10 renal
U251 CNS = system: U251 CNS
UACC-257 melanoma = system: UACC-257 melanoma
UACC-62 melanoma = system: UACC-62 melanoma
UO-31 renal = system: UO-31 renal

Compound `O=C1CCC(N2Cc3c(C#CCCCNC(=O)c4cc5c(o4)C(=O)c4ccccc4C5=O)cccc3C2=O)C(=O)N1` (stereo unspecified) has a GI50 (786-0 renal) of 15.3 µM, a TGI (786-0 renal) of 32 µM and a GI50 (A498 renal) of 14.2 µM. It also gave a TGI (A498 renal) of 27.5 µM, a GI50 (A549 NSCLC) of 12.6 µM and a TGI (A549 NSCLC) of 32.9 µM. The GI50 (ACHN renal) was 12.6 µM, the TGI (ACHN renal) was 26 µM and the GI50 (BT-549 breast) was 1.73 µM. The TGI (BT-549 breast) was 3.17 µM, the GI50 (CAKI-1 renal) was 14.3 µM and the TGI (CAKI-1 renal) was 30.7 µM. The GI50 (CCRF-CEM leukemia) was 4.42 µM, the TGI (CCRF-CEM leukemia) was 55.4 µM and the GI50 (COLO 205 colon) was 2.3 µM. The TGI (COLO 205 colon) was 6.01 µM, the GI50 (DU-145 prostate) was 1.82 µM and the TGI (DU-145 prostate) was 3.28 µM. The GI50 (EKVX NSCLC) was 15 µM, the TGI (EKVX NSCLC) was 31.1 µM and the GI50 (HCC-2998 colon) was 2.63 µM. It also gave a TGI (HCC-2998 colon) of 6.63 µM, a GI50 (HCT-116 colon) of 3.09 µM and a TGI (HCT-116 colon) of 10.3 µM. It also gave a GI50 (HCT-15 colon) of 16.4 µM, a TGI (HCT-15 colon) of 45.4 µM and a GI50 (HL-60(TB) leukemia) of 2.37 µM. For the same compound, the TGI (HL-60(TB) leukemia) was 7.34 µM, the GI50 (HOP-62 NSCLC) was 2.89 µM and the TGI (HOP-62 NSCLC) was 9.32 µM. It also gave a GI50 (HOP-92 NSCLC) of 9.07 µM, a TGI (HOP-92 NSCLC) of 26 µM and a GI50 (HS 578T breast) of 2.39 µM. The TGI (HS 578T breast) was 5.64 µM, the GI50 (HT29 colon) was 5.92 µM and the TGI (HT29 colon) was 39.9 µM. It also gave a GI50 (IGROV1 ovarian) of 4.03 µM, a TGI (IGROV1 ovarian) of 17.2 µM and a GI50 (K-562 leukemia) of 3.11 µM. The TGI (K-562 leukemia) was 16.6 µM, the GI50 (KM12 colon) was 4.52 µM and the TGI (KM12 colon) was 28.6 µM. The GI50 (LOX IMVI melanoma) was 2.14 µM, the TGI (LOX IMVI melanoma) was 5.49 µM and the GI50 (M14 melanoma) was 1.85 µM. For the same compound, the TGI (M14 melanoma) was 3.59 µM, the GI50 (MALME-3M melanoma) was 0.988 µM and the TGI (MALME-3M melanoma) was 2.19 µM. For the same compound, the GI50 (MCF7 breast) was 1.63 µM, the TGI (MCF7 breast) was 3.73 µM and the GI50 (MDA-MB-231 breast) was 2.92 µM. It also gave a TGI (MDA-MB-231 breast) of 19.6 µM, a GI50 (MDA-MB-435) of 1.81 µM and a TGI (MDA-MB-435) of 3.27 µM. It also gave a GI50 (MOLT-4 leukemia) of 3.08 µM, a TGI (MOLT-4 leukemia) of 12.5 µM and a GI50 (NCI-H226 lung) of 12.5 µM. It also gave a TGI (NCI-H226 lung) of 30.2 µM, a GI50 (NCI-H23 lung) of 1.58 µM and a TGI (NCI-H23 lung) of 4.44 µM. It also gave a GI50 (NCI-H460 lung) of 1.99 µM, a TGI (NCI-H460 lung) of 4.09 µM and a GI50 (NCI-H522 lung) of 1.98 µM. The TGI (NCI-H522 lung) was 4.61 µM, the GI50 (NCI/ADR-RES ovarian) was greater than 100 µM and the TGI (NCI/ADR-RES ovarian) was greater than 100 µM. For the same compound, the GI50 (OVCAR-3 ovarian) was 1.97 µM, the TGI (OVCAR-3 ovarian) was 4.8 µM and the GI50 (OVCAR-4 ovarian) was 1.88 µM. The TGI (OVCAR-4 ovarian) was 4.73 µM, the GI50 (OVCAR-5 ovarian) was 15.6 µM and the TGI (OVCAR-5 ovarian) was 29.7 µM. The GI50 (OVCAR-8 ovarian) was 3.24 µM, the TGI (OVCAR-8 ovarian) was 87 µM and the GI50 (PC-3 prostate) was 2.95 µM. For the same compound, the TGI (PC-3 prostate) was 56.2 µM, the GI50 (RPMI-8226 leukemia) was 6.93 µM and the TGI (RPMI-8226 leukemia) was 30.1 µM. It also gave a GI50 (RXF 393 renal) of 4.55 µM, a TGI (RXF 393 renal) of 18.2 µM and a GI50 (SF-268 CNS) of 3.06 µM. For the same compound, the TGI (SF-268 CNS) was 11.2 µM, the GI50 (SF-295 CNS) was 2.84 µM and the TGI (SF-295 CNS) was 8.03 µM. For the same compound, the GI50 (SF-539 CNS) was 2.27 µM, the TGI (SF-539 CNS) was 5.26 µM and the GI50 (SK-MEL-2 melanoma) was 2.54 µM. It also gave a TGI (SK-MEL-2 melanoma) of 6.47 µM, a GI50 (SK-MEL-28 melanoma) of 3.53 µM and a TGI (SK-MEL-28 melanoma) of 8.83 µM. For the same compound, the GI50 (SK-MEL-5 melanoma) was 1.75 µM, the TGI (SK-MEL-5 melanoma) was 3.25 µM and the GI50 (SK-OV-3 ovarian) was 15.9 µM. For the same compound, the TGI (SK-OV-3 ovarian) was 30.4 µM, the GI50 (SN12C renal) was 1.69 µM and the TGI (SN12C renal) was 3.25 µM. The GI50 (SNB-19 CNS) was 2.65 µM, the TGI (SNB-19 CNS) was 8.35 µM and the GI50 (SNB-75 CNS) was 2.09 µM. It also gave a TGI (SNB-75 CNS) of 4.72 µM, a GI50 (SR leukemia) of 3.15 µM and a TGI (SR leukemia) of 14.5 µM. For the same compound, the GI50 (SW-620 colon) was 3.05 µM, the TGI (SW-620 colon) was 11.4 µM and the GI50 (T-47D breast) was 3.16 µM. The TGI (T-47D breast) was 11.9 µM, the GI50 (TK-10 renal) was 33.1 µM and the TGI (TK-10 renal) was 50.2 µM. It also gave a GI50 (U251 CNS) of 2.87 µM, a TGI (U251 CNS) of 8.07 µM and a GI50 (UACC-257 melanoma) of 2 µM. The TGI (UACC-257 melanoma) was 4.48 µM, the GI50 (UACC-62 melanoma) was 1.87 µM and the TGI (UACC-62 melanoma) was 3.65 µM. It also gave a GI50 (UO-31 renal) of 14 µM and a TGI (UO-31 renal) of 36.1 µM.
